Target: T1, KDM5APHD3 (JARID1A-PHD3, residues M1489–V1641) (Homo sapiens, UniProt P29375)
T1 construct: KDM5APHD3 (JARID1A-PHD3, residues M1489–V1641); made in house; host or cells: E. coli
T1 sequence (P29375 1489-1641): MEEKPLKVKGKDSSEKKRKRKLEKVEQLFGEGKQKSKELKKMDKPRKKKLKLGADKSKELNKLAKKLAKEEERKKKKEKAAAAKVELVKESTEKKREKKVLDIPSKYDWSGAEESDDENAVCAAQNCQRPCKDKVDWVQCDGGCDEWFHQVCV
Experiment: ITC, association of histone H3 peptides with KDM5APHD3
Format: binding
Conditions: 25 °C, H3 1-10 peptide, Tris (50 mM), NaCl (20 mM), pH 7.5, from 3 to 5 experiments, ± SD
Source text: We investigated the thermodynamics of association of the H3KP4me3 peptide with five representative human reader domains containing either a PHD zinc finger or TTD, i.e. KDM5APHD3 (JARID1A-PHD3, residues M1489–V1641)[10], TAF3PHD (R857–K924)[22], BPTFPHD (L2583–N2751)[23], SGF29TTD (R115–K293)[24] and KDM4ATTD (JMJD2A, Q897-P1011)[25], selected on the basis of their preference for binding Ν^ε-trimethyllysine over other (non)methylation marks (Kme0 < Kme1 < Kme2 < Kme3), and their domain and aromatic cage diversity. The recombinant readers were produced in E. coli following reported procedures. Isothermal titration calorimetric (ITC) analyses were used to determine the dissociation constant (Kd), the Gibbs free energy of binding (ΔG°), the enthalpy of binding (ΔH°), and the entropy of binding (ΔS°). […] (Table 1, Fig. 2, Supplementary Fig. 1).
The following purified reader domains: TAF3PHD (R857-K924), KDM5APHD3 (JARID1A, M1489-V1641), BPTFPHD (L2583-N2751), KDM4ATTD (JMJD2A, Q897-P1011) and SGF29TTD (R115-K293) were prepared as reported[10],[22]–[26]. The histone lysine demethylase were produced and purified to high purity via reported procedures KDM3A (JMJD1A, T515-S1317)[41], KDM4AJmjC[39] (JMJD2A, M1-L359), KDM4EJmjC (JMJD2E, M1–Q337)[34] and KDM7B[40] (PHF8, M37-N483 [NP_001171]). KDM5DJmjC was produced using an N-terminal hexa-His tagged KDM4D (KDM4DM1-L358) DNA construct, transformed into BL21(DE3) competent cells for recombinant protein production. Colonies were used to inoculate of LB media (50 mL) containing kanamycin (50 µg·mL^−1) and chloramphenicol (34 µg·mL^−1), which was placed in a 37 °C shaker overnight. The starter culture (10 mL) was used to inoculate TB media (6 × 1 L) containing kanamycin (50 µg·mL^−1) in 2 L baffled shaker flasks. After reaching an of OD600 of ~0.8, the temperature was reduced to 18 °C; at OD600 ~0.9 the cells were induced by the IPTG (0.5 mM) addition. After shaking overnight, the culture was centrifuged (5000 rpm, 10 mins), the media was decanted, and the cell pellet was suspended in Lysis Buffer [HEPES (50 mM), NaCl (500 mM), imidazole (20 mM), glycerol (5%) and TCEP (0.5 mM) in water (pH 7.4)]. The suspension was lysed by passaging through a high-pressure cell breaker (Avestin – EmulsiFlex-C5) for three rounds. The lysate was cleared by centrifugation (60 minutes, 36,000 × g, 4 °C), then loaded onto a Ni NTA gravity column. […]
ITC studies followed a reported procedure. […] Histone peptide titrations were performed with the same reader batches. Solutions of the reader in buffer (25–40 µM) and of the histone H3 peptide (350–600 µM) in buffer were prepared. […] Heats of dilution for histone peptides determined in control experiments were subtracted from the titration binding data. […]

With C[C@H](N)C(=O)N[C@@H](CCCNC(=N)N)C(=O)N[C@H](C(=O)N[C@@H](CCCC[P+](C)(C)C)C(=O)N[C@@H](CCC(N)=O)C(=O)N[C@H](C(=O)N[C@@H](C)C(=O)N[C@@H](CCCNC(=N)N)C(=O)N[C@@H](CCCCN)C(=O)N[C@@H](CO)C(N)=O)[C@@H](C)O)[C@@H](C)O [H3KP4me3] the “-TΔS°” value was 1.9 ± 0.1 kcal/mol, the “ΔG°” value was -9.1 ± 0.1 kcal/mol and the “ΔH°” value was -11.0 ± 0.1 kcal/mol.
